# Measurements reported in patent US12358966B2, “Inducible caspases and methods for use” (Poseida Therapeutics, Inc., priority 2016, dated 2025).
# Where two headings read alike, the source gives them in different places.
# Columns and labels:
# [1] = cited from earlier work
# [2] = tested on: cells comprising P-BCMA-101; assay: In vivo killing of cells comprising P-BCMA-101 via iC9 safety switch in NSG mice (huCD45+ cells in blood, spleen, bone marrow); settings: AP1903 0.005-5 mg/kg on day 12, analysis 24 hours later
# Method: FIG. 5 is a diagram showing a study timeline and outline for an in vivo study. NSG mice were IV injected with MM.1S/luciferase^+ cells, staged at day 8, injected with T cells on day 9, and treated with AP1903 (Rimiducid) on day 12 at the indicated doses. 24 hours later, mice were euthanized and blood, spleen, and bone marrow cells were collected and stained for the presence of huCD45^+ cells.
# Blood, spleen, and bone marrow cells were analyzed by flow cytometry for the presence of huCD45^+ cells. The relative viability was determined by: ((#of huCD45 cells/ #of msCD45 cells)/(Average of huCD45/msCD45 in no treatment group))*100% per 1,500 bead events for each sample. Each data point represents a different mouse. On the x-axis is plotted percent Relative CAR-T Viability from 0 to 175 in increments of 25. […]
# NSG mice were IV injected with MM.1S/luciferase^+ cells, staged at day 8, injected with T cells on day 9, and treated with AP1903 (Rimiducid) on day 12 at the indicated doses. […] Blood, spleen, and bone marrow cells were analyzed by flow cytometry for the presence of huCD45^+ cells. The relative viability was determined by dividing the number of huCD45 cells by the number of msCD45 cells and normalizing to the average of huCD45/msCD45 in the no treatment group times, 100% per 1,500 bead events for each sample. […]
# [3] = tested on: cells; assay: Amount of AP1903 needed in vitro for effective signaling of cells; format: cell-based; settings: calculated with 1600 Da MW
# Method: The fixed dose of AP1903 (Rimiducid) for injection used, for example, may be 0.4 mg/kg intravenously infused over 2 hours. The amount of AP1903 (Rimiducid) needed in vitro for effective signaling of cells is 10-100 nM (1600 Da MW). This equates to 16-160 μg/L or […]. Doses up to 1 mg/kg were well-tolerated in the Phase I study of AP1903 (Rimiducid) described above. Therefore, 0.4 mg/kg may be a safe and effective dose of AP1903 (Rimiducid) for this Phase I study in combination with the therapeutic cells.
# [4] = tested on: Human pan T-cells; assay: iC9 safety switch test: viability of modified T cells by flow cytometry with 7-AAD after incubation with AP1903; format: cell-based; settings: 24 hours incubation, 0-1000 nM tested
# From the text: Human pan T-cells were nucleofected using an Amaxa 4D nucleofector with one of four piggyBac transposons. Modified T cells receiving the “mock” condition were nucleofected with an empty piggyBac transposon. Modified T cells received either a piggyBac […] containing a therapeutic agent alone (a sequence encoding a CARTyrin) or a piggyBac […] containing an integrated iC9 sequence and a therapeutic agent (a sequence encoding a CARTyrin).
# To test the iC9 safety switch, each of the four modified T cells were incubated for 24 hours with 0, 0.1 nM, 1 nM, 10 nM, 100 nM or 1000 nM AP1903 (an induction agent for […], also known as Rimiducid). Viability was assessed by flow cytometry using 7-aminoactinomycin D (7-AAD), a fluorescent intercalator, as a marker for cells undergoing apoptosis.
# Cell viability was assessed at day 12 (see FIG. 2). […] Moreover, cell viability was assessed at day 19 (see FIG. 3). […]
# A quantification of the aggregated results was performed and is provided in FIG. 4, showing the significant impact of the iC9 safety switch on the percent cell viability as a function of the concentration of the induction agent (AP1903, also known as Rimiducid) of the iC9 switch for each modified cell type at either day 12 (FIG. 2 and left graph) or day 19 (FIG. 3 and right graph).
# [5] = tested on: cells; settings: cited from earlier work
compound,measurement,setting,value
"CC[C@H](C(=O)N1CCCC[C@H]1C(=O)O[C@H](CCc1ccc(OC)c(OC)c1)c1cccc(OCC(=O)NCCNC(=O)COc2cccc([C@@H](CCc3ccc(OC)c(OC)c3)OC(=O)[C@@H]3CCCCN3C(=O)[C@@H](CC)c3cc(OC)c(OC)c(OC)c3)c2)c1)c1cc(OC)c(OC)c(OC)c1 (relative stereo) [AP1903, 2-Piperidinecarboxylic acid, 1-[(2S)-1-oxo-2-(3,4,5-trimethoxyphenyl)butyl]-, 1,2-ethanediylbis[imino (2-oxo-2,1-ethanediyl)oxy-3,1-phenylene[(1R)-3-(3,4-dimethoxyphenyl)propylidene]]ester, [2S-[1(R*),2R*[S*[S*[1(R*),2R*]]]]]-(9C1)]",plasma levels versus dose,"[1]; 0.01, 0.05, 0.1, 0.5 and 1.0 mg/kg",directly proportional to dose
same,plasma level as % of maximal concentration,[1]; 0.5 hours post-dose,approximately 18%
same,plasma level as % of maximal concentration,[1]; 2 hours post-dose,~7%
same,plasma level as % of maximal concentration,[1]; 10 hours post-dose,~1%
same,well-tolerated dose,[1]; Phase I study,up to 1 mg/kg
same,safety and tolerability,"[1]; all dose levels 0.01-1.0 mg/kg, single dose IV over 2 hours",safe and well tolerated at all dose levels
same,pharmacokinetic profile,[1]; healthy volunteers,favorable pharmacokinetic profile
same,mean Cmax,"[1]; over the 0.01-1.0 mg/kg dose range, IV infusion over 2 hours, 24 healthy volunteers",10 to 1275 ng/mL
same,killing of cells comprising P-BCMA-101 in vivo,[2],highly efficient killing
same,"amount needed for effective signaling, converted to dose",[3],0.016 to 1.6 µg/kg
same,"amount needed for effective signaling, converted to mass concentration",[3],16 to 160 µg/L
same,lowest concentration of the study at which apoptosis is induced,[4],0.1 nM
same,amount needed in vitro for effective signaling of cells,[5],10 to 100 nM
